pIC50: −log10 of the molar value. Counter-ions that a name gives are not always drawn. Like-named read-outs stand apart in the source and are kept apart here. Values belong to the molecule of their own block, whether it stands above or below them.
Test system: cultured human mast cells (CHMC)
Assay: CHMC low cell density IgE activation: tryptase assay
Format: cell-based
Settings: IgE activation
Method in brief: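 Tryptase release, fluorogenic substrate, 30 min RT. Prior anti-IgE stimulation of CHMC, 30 min, 37 °C, after 1 hr preincubation at 1000–1500 cells/well in MT; unstimulated wells received MT.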

[1] = Homo sapiens, Mast cell, low cell density CHMC, tryptase release, 8 pt, read-out: LD Tryptase, CHMC, IgE, 8 pt
[2] = Homo sapiens, Mast cell, low cell density CHMC, tryptase release, 3 pt, read-out: LD Tryptase, CHMC, IgE, 3 pt
[3] = Homo sapiens, Mast cell, low cell density CHMC, tryptase, 3 pt, read-out: LD Tryptase, CHMC, IgE, 3 pt
[4] = Homo sapiens, Mast cell, low cell density CHMC, tryptase, 8 pt, read-out: LD Tryptase, CHMC, IgE, 8 pt
[5] = low cell density CHMC, tryptase release, 3 pt, read-out: LD Tryptase, CHMC, IgE, 3 pt
[6] = low cell density CHMC, tryptase release, 8 pt, read-out: LD Tryptase, CHMC, IgE, 8 pt
[7] = low cell density CHMC, tryptase, 8 pt, read-out: LD Tryptase, CHMC, IgE, 8 pt
[8] = Homo sapiens, Mast cell, low cell density, 3 pt, read-out: LD Tryptase, CHMC, IgE, 3 pt
[9] = Homo sapiens, Mast cell, low cell density, 8 pt, read-out: LD Tryptase, CHMC, IgE, 8 pt
[10] = low cell density, 8 pt, read-out: LD Tryptase, CHMC, IgE, 8 pt

- pIC50 [1]: > 5.00
Structure (SMILES): CC(C)n1ncc2cc(Nc3ncc(F)c(Nc4ccc(Cl)c(Cl)c4)n3)ccc21 [Compound 780, N4-(3,4-Dichlorophenyl)-5-fluoro-N2-[1-(1-methylethyl)indazol-5-yl]-2,4-pyrimidinediamine]

- pIC50 [2]: > 5.00
- pIC50 [1]: > 5.00
Structure (SMILES): O=C1CCCC(=O)N1CCCn1ncc2cc(Nc3ncc(F)c(Nc4ccc(Cl)c(Cl)c4)n3)ccc21 [Compound 859, N4-(3,4-Dichlorophenyl)-N2-[1-[3-(2,6-dioxopiperidino)propyl]indazol-5-yl]-5-fluoro-2,4-pyrimidinediamine]

- pIC50 [3]: > 5.00
Structure (SMILES): CCCCn1ncc2cc(Nc3ncc(F)c(Nc4ccc(OC)c(Cl)c4)n3)ccc21 [Compound 710, N2-(1-n-Butylindazol-5-yl)-N4-(3-chloro-4-methoxyphenyl)-5-fluoro-2,4-pyrimidinediamine]

- pIC50 [1]: > 5.00
Structure (SMILES): CC(C)(C)C(=O)NCCCn1ncc2cc(Nc3ncc(F)c(Nc4ccc5c(c4)NC(=O)C(C)(C)O5)n3)ccc21 [Compound 850, N4-(2,2-Dimethyl-3-oxo-4H-benz[1,4]oxazin-6-yl)-5-fluoro-N2-[1-(3-pivalamidopropyl)indazol-5-yl]-2,4-pyrimidinediamine]

- pIC50 [3]: > 5.00
- pIC50 [4]: > 5.00
Structure (SMILES): CCCn1ncc2ccc(Nc3ncc(F)c(Nc4ccc(Cl)c(Cl)c4)n3)cc21 [Compound 707, N4-(3,4-Dichlorophenyl)-5-fluoro-N2-(1-n-propylindazol-6-yl)-2,4-pyrimidinediamine]

- pIC50 [5]: > 5.00
- pIC50 [6]: > 5.00
Structure (SMILES): COCCCn1ncc2ccc(Nc3ncc(F)c(Nc4ccc5c(n4)NC(=O)C(C)(C)O5)n3)cc21 [Compound 839, N4-(2,2-Dimethyl-3-oxo-4H-5-pyrid[1,4]oxazin-6-yl)-5-fluoro-N2-[1-(3-methoxypropyl)indazol-6-yl]-2,4-pyrimidinediamine]

- pIC50 [5]: > 5.00
- pIC50 [6]: > 5.00
Structure (SMILES): CNC(=O)COc1cccc(Nc2ncc(F)c(Nc3ccc4c(c3)NC(=O)C(C)(C)S4)n2)c1 [Compound 294, N4-(2,2-Dimethyl-3-oxo-4H-benzo[1,4]thiazin-6-yl)-5-fluoro-N2-[3-(N-methylamino)carbonylmethyleneoxyphenyl]-2,4-pyrimidinediamine]

- pIC50 [8]: > 5.00
- pIC50 [9]: > 5.00
Structure (SMILES): CCOCCCn1ncc2cc(Nc3ncc(F)c(Nc4ccc5c(c4)NC(=O)C(C)(C)O5)n3)ccc21 [Compound 873, N4-(2,2-Dimethyl-3-oxo-4H-benz[1,4]oxazin-6-yl)-N2-[1-(3-ethoxypropyl)indazol-5-yl]-5-fluoro-2,4-pyrimidinediamine]

- pIC50 [8]: > 5.00
- pIC50 [9]: > 5.00
Structure (SMILES): CNC(=O)c1ccc(Nc2nc(Nc3ccc4cc[nH]c4c3)ncc2F)cc1Cl [Compound 485, N4-[3-Chloro-4-(N-methylamino)carbonylphenyl]-5-fluoro-N2-(indol-6-yl)-2,4-pyrimidinediamine]

- pIC50 [8]: > 5.00
Structure (SMILES): COc1ccc(Nc2nc(Nc3ccc4oncc4c3)ncc2F)cc1Cl [Compound 925]

- pIC50 [4]: > 5.00
Structure (SMILES): COc1ccc(Nc2ncc(F)c(Nc3ccc4c(c3)NC(=O)C(C)(C)O4)n2)cc1Cl [Compound 378, N2-(3-Chloro-4-methoxyphenyl)-N4-(2,2-dimethyl-3-oxo-4H-benz[1,4]oxazin-6-yl)-5-fluoro-2,4-pyrimidinediamine p-Toluene Sulfonic Acid Salt]

- pIC50 [7]: > 5.00
Structure (SMILES): CNC(=O)CNC(=O)c1ccc(Nc2ncc(F)c(Nc3ccc(OC)c(Cl)c3)n2)cc1 [Compound 1325]

- pIC50 [1]: > 5.00
Structure (SMILES): O=C1CSc2ccc(Nc3nc(Nc4ccc5[nH]ncc5c4)ncc3F)cc2N1 [Compound 288]

- pIC50 [1]: > 5.00
Structure (SMILES): COc1cc(Nc2nc(Nc3ccc4c(cnn4C(C)C)c3)ncc2F)ccc1F [Compound 782, 5-Fluoro-N4-(4-fluoro-3-methoxyphenyl)-N2-[1-(1-methylethyl)indazol-5-yl]-2,4-pyrimidinediamine]

- pIC50 [1]: > 5.00
Structure (SMILES): COc1ccc(Nc2ncc(F)c(Nc3ccc4c(c3)NC(=O)C(C)S4)n2)cc1Cl (centres unmarked) [Compound 280]

- pIC50 [3]: > 5.00
Structure (SMILES): Fc1cnc(Nc2ccc3c(cnn3CC3CCC3)c2)nc1Nc1ccc(Cl)c(Cl)c1 [Compound 727, N2-[1-(Cyclobutylmethyl)indazol-5-yl]-N4-(3,4-dichlorophenyl)-5-fluoro-2,4-pyrimidinediamine]

- pIC50 [3]: > 5.00
- pIC50 [4]: > 5.00
Structure (SMILES): COc1ccc(Nc2nc(Nc3ccc4c(C)nn(C)c4c3)ncc2F)cc1Cl [Compound 752, N4-(3-Chloro-4-methoxyphenyl)-N2-(1,3-dimethylindazol-6-yl)-5-fluoro-2,4-pyrimidinediamine]

Continued, molecule first:

Structure (SMILES): CCOC(=O)N1CCC(Nc2nc(Nc3ccc(N4CCN(C)CC4)c(Cl)c3)ncc2F)CC1 [Compound 1227]
- pIC50 [3]: > 5.00

Structure (SMILES): COc1cc(Nc2ncc(F)c(Nc3ccc4c(c3)NC(=O)C(C)(C)S4)n2)cc(OC)c1 [Compound 290]
- pIC50 [1]: > 5.00

Structure (SMILES): NC1CCOc2ccc(Nc3nc(Nc4ccc(-c5cnco5)cc4)ncc3F)cc21 (racemic) [Compound 1293, (R,S)-N4-[4-Amino-3,4-dihydro-2H-1-benzopyran-6-yl]-5-fluoro-N2-[4-(oxazol-5-yl)phenyl]-2,4-pyrimidinediamine]
- pIC50 [7]: > 5.00

Structure (SMILES): CC1(C)Oc2ccc(Nc3nc(Nc4ccc5c(cnn5CCCN5C(=O)CCC5=O)c4)ncc3F)nc2NC1=O [Compound 857, N4-(2,2-Dimethyl-3-oxo-4H-5-pyrid[1,4]oxazin-6-yl)-5-fluoro-N2-[1-[3-(N-succinimidopropyl)]indazol-5-yl]-2,4-pyrimidinediamine]
- pIC50 [5]: > 5.00
- pIC50 [6]: > 5.00

Structure (SMILES): CNC(=O)COc1cccc(Nc2ncc(F)c(Nc3ccc4c(c3)NCC(C)(C)O4)n2)c1 [Compound 1000, N4-(3,4-Dihydro-2,2-dimethyl-4H-benz[1,4]oxazin-6-yl)-5-fluoro-N2-[3-(N-methylamino)carbonylmethyleneoxyphenyl]-2,4-pyrimidinediamine]
- pIC50 [10]: > 5.00

Structure (SMILES): COc1cc(Nc2nc(Nc3cc(OC)c(OC)c(OC)c3)ncc2F)cc(C(F)(F)F)c1 [Compound 335]
- pIC50 [1]: > 5.00

Structure (SMILES): CC(=O)NCCCn1c(C)nc2cc(Nc3ncc(F)c(Nc4ccc5c(n4)NC(=O)C(C)(C)O5)n3)ccc21 [Compound 953, N2-[1-[3-(N-Acetylamino)propyl]-2-methylbenzimidazol-5-yl]-N4-(2,2-Dimethyl-3-oxo-4H-5-pyrido[1,4]oxazin-6-yl)-5-fluoro-2,4-pyrimidinediamine]
- pIC50 (low cell density, 3 pt, read-out: LD Tryptase, CHMC, IgE, 3 pt): > 5.00
- pIC50 [10]: > 5.00

Structure (SMILES): CN1CCN(c2ccc(Nc3ncc(F)c(NC(C)(C)C)n3)cc2Cl)CC1 [Compound 1217]
- pIC50 [3]: > 5.00

Structure (SMILES): COc1cc(Nc2ncc(F)c(Nc3ccc4c(n3)NC(=O)C(C)(C)O4)n2)cc(OC)c1OC.O=S(=O)(O)c1ccc(O)cc1 [Compound 676, N4-(2,2-Dimethyl-3-oxo-4H-5-pyrid[1,4]oxazin-6-yl)-5-fluoro-N2-(3,4,5-trimethoxyphenyl)-2,4-pyrimidinediamine 4-Hydroxybenzenesulfonic Acid Salt]
- pIC50 (low cell density CHMC, tryptase, 3 pt, read-out: LD Tryptase, CHMC, IgE, 3 pt): > 5.00
- pIC50 [7]: > 5.00

Structure (SMILES): CN1CCN(c2cccc(Nc3ncc(F)c(NC4CC(C)(C)N(C)C(C)(C)C4)n3)c2)CC1 [Compound 1221]
- pIC50 [3]: < 5.00

Structure (SMILES): COc1cc(C)c(Nc2ncc(F)c(Nc3ccc4c(c3)NC(=O)[C@@H](C)O4)n2)cc1Cl [Compound 213]
- pIC50 [2]: > 5.00
- pIC50 [1]: > 5.00

Structure (SMILES): CN1CCN(c2ccc(Nc3ncc(F)c(NC4CCCC4)n3)cc2C(F)(F)F)CC1 [Compound 1208]
- pIC50 [3]: > 5.00

Structure (SMILES): Cc1cc(Nc2ncc(F)c(NC3CC(C)(C)N(C)C(C)(C)C3)n2)ccc1N1CCN(C)CC1 [Compound 1223]
- pIC50 [3]: > 5.00

Source: patent US20220073536A1 (Rigel Pharmaceuticals, Inc., priority 2003, published 2022)
